Results taken from patent US12662518B2, “Engineered peptide and peptide mimetic compositions and methods” (The Wistar Institute of Anatomy and Biology, priority 2019, dated 2026).
Peptide text beside a SMILES is read from it.

Columns and labels:
[1] = test system: isolated tumor (PC3) mitochondria; assay: high-throughput assay for depolarization of isolated tumor (PC3) mitochondria, TMRE staining; assay type: biochemical, human; conditions: MFF peptides 20 μM
Protocol: Analysis of mitochondrial membrane potential. […] In some experiments, PC3 cells were treated with cell-permeable scrambled peptide or cell-permeable MFF #8-11 peptide, washed three times in PBS, pH 7.4, and analyzed on a FACSCalibur flow cytometer, with the TMRE signal as FL1. Intact cells were gated in the FSC/SSC plot to exclude small debris. Cells treated with 20 μM FCCP 10 min prior to TMRE staining were used as a negative control. The resulting FL1 data were plotted on a histogram. For quantification of membrane potential of purified mitochondria, mitochondria isolated from PC3 cells (50 μg) were suspended in 400 μl of SB buffer (0.2 M sucrose, 10 mM Tris-MOPS, pH 7.4, 5 mM succinate, 1 mM sodium phosphate, 10 μM EGTA-Tris, 2 μM rotenone). […] After two washes with SB buffer, mitochondria were recovered by centrifugation at 6000×g for 10 min, suspended in 100 μl of SB buffer and mitochondrial membrane potential was quantified on a florescence microplate reader (Ex/Em=535/595 nm, Beckman Coulter). Samples treated with 2 mM CaCl2 were used as control for the lowest membrane potential (fully depolarized state).

human recombinant VDAC = biological target: T1, human recombinant VDAC (Homo sapiens, UniProt P21796); assay: isothermal titration calorimetry (ITC); assay type: binding; conditions: 20° C.
T1 construct: The cleaved, full length hVDAC1 was collected from the HS-HQ flow through; hexahistidine-SUMO (N, cleaved yes); made in house; host or cells: E. coli ScarabXpress T7 lac
T1 sequence (P21796 whole entry): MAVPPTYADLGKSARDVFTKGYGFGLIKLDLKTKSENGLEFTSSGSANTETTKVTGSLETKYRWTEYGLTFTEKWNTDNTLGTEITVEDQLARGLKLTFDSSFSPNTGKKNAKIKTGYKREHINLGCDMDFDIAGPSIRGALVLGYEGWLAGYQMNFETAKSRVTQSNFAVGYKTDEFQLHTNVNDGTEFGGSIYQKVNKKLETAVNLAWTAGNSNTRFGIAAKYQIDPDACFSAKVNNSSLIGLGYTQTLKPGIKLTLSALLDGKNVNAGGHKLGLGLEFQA
Protocol: Expression and purification of human VDAC1. A full length human VDAC1 cDNA (hVDAC1) was cloned into pET28b vector containing an N-terminal hexahistidine-SUMO fusion tag, with a flexible linker cleavable by tobacco etch virus (TEV) protease. The hVDAC1 was expressed in E. coli ScarabXpress T7 lac competent cells (Scarab genomics) for 16 h at 16° C. using 1 mM IPTG (Denville Scientific Inc.). The cells were harvested by centrifugation and lysed on ice via sonication in buffer containing 25 mM Tris-HCl (pH 7.5), 1 M Urea, 1 M KCl, 5% glycerol, 1 mM Benzamidine and 1 mM PMSF (Ni Buffer A). The lysate was centrifuged at 18,000 rpm for 20 min at 4° C. The cell pellet was first washed extensively in Ni Buffer A with 1% Triton X-100 and then solubilized in buffer containing 20 mM Tris-HCl (pH 7.9), 500 mM NaCl, 4 M guanidine-HCl and 10% glycerol for 45 min with gentle stirring. The supernatant was collected following centrifugation at 20,000 rpm for 10 min at 4° C. The protein was then purified over nickel-nitrilotriacetic acid (Ni-NTA—Qiagen) column and buffer-exchanged to 25 mM Tris-HCl (pH 7.5), 500 mM KCl, 5% glycerol, 1 mM benzamidine and 1 mM PMSF (Ni buffer C) with 2% n-Octylglucoside (Research Products International). The protein was then eluted with 300 mM imidazole and treated overnight with TEV at 4° C. to cleave the His-SUMO tag. […]

[2] = test system: NSCLC A549 and H460 or breast adenocarcinoma MDA-231 and MCF-7 cells; assay: NSCLC and breast adenocarcinoma cell lines, TMRE flow cytometry and CellTox cell death; assay type: cell-based, human; conditions: A549, H460, MDA-231, MCF-7 cells, 10-25 μM, TMRE
PC3 cells = assay: cytochrome c release from tumor cells, Western blotting; assay type: cell-based, human; conditions: supernatants vs mitochondrial extracts
[3] = test system: mitochondria of normal BPH-1 cells; assay: depolarization of isolated mitochondria of normal BPH-1 cells, TMRE staining; assay type: biochemical, human; conditions: peptide #8 10-30 μM
[4] = biological target: T2, MFF-PTP complex (MFF and VDAC or HK-I) (Homo sapiens, UniProt P21796); assay: competition of MFF-PTP complex in isolated cell extracts, Flag-MFF1 immunoprecipitation and Western blotting; assay type: biochemical; conditions: added to isolated cell extracts
T2 construct: VDAC and HK-I are endogenous
T2 sequence (P21796 2-283 limits assumed, one chain of several): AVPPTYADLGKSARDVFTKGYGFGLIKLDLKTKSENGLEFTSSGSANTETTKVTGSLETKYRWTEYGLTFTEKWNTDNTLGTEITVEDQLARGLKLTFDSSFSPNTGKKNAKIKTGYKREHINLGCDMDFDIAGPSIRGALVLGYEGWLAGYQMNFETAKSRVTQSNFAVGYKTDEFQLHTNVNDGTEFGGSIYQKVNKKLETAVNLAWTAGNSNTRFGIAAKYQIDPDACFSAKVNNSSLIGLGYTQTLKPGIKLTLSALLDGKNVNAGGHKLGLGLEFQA
Protocol: Immunoprecipitation (IP). Cells were harvested and lysed with IP buffer (50 mM Tris-HCl, pH 7.5, 150 mM NaCl, 1 mM EDTA) containing 1% CHAPS, EDTA-free Protease Inhibitor Cocktail (Sigma-Aldrich) and Phosphatase Inhibitor Cocktail PhosSTOP (Roche). After sonication, lysates were centrifuged at 15,000×g for 30 min, and cell extracts were incubated with anti-Flag-conjugated beads (Sigma-Aldrich). The precipitates were washed five times, separated by SDS-polyacrylamide gel electrophoresis and processed for Western blotting together with samples representing unbound material and supernatant.
Immunoprecipitation. Cells were harvested and lysed with PLD assay buffer (50 mM HEPES-NaOH, pH 7.3, 3 mM EGTA, 3 mM CaCl2, 3 mM MgCl2, 80 mM KCl) containing 1% CHAPS, EDTA-free Protease Inhibitor Cocktail (Sigma-Aldrich) and Phosphatase Inhibitor Cocktail PhosSTOP (Roche). After sonication, lysates were centrifuged at 15,000×g for 30 min, and cell extracts were incubated with anti-Flag-conjugated beads (Sigma-Aldrich). The precipitates were washed five times, separated by sodium dodecyl sulfate-polyacrylamide gel electrophoresis (SDS-PAGE) and processed for Western blotting.

[5] = test system: prostate cancer cell types (LNCaP, C4-2B, PC3, DU145); assay: cell death of prostate cancer cells, CellTox reactivity; assay type: cell-based, human; conditions: PC3 / prostate cancer cells, 0-50 μM
Protocol: Cell death and apoptosis. […] The various cell-permeable MFF peptides were examined for induction of cytotoxicity using a CellTOX Green cytotoxicity assay kit (Promega). Briefly, 10^4 normal or tumor cells in 100 μl complete medium were plated on white opaque 96-well plate. […] Lysis Solution in the assay kit was used as cytotoxicity control (100% cell death) and treatment with PBS was used as a control for 100% cell viability.

DU145 or PC3 cells = assay: release of HMGB1 and cyclophilin A from tumor cells, Western blotting; assay type: cell-based, human; conditions: marker of necrosis

NLSSARGILSLIQSSTRRAYQQILDVL (MFF Deletion; Peptide 8 #1) [peptide #8 variant #1]
depolarization of isolated tumor (PC3) mitochondria [1]: depolarized isolated tumor mitochondria

SARGILSLIQSSTRRAYQQILDVL (MFF Deletion; Peptide 8 #2) [peptide #8 variant #2]
depolarization of isolated tumor (PC3) mitochondria [1]: depolarized isolated tumor mitochondria

CC[C@H](C)[C@H](NC(=O)CNC(=O)[C@H](CCCNC(=N)N)NC(=O)[C@H](C)NC(=O)[C@@H](N)CO)C(=O)N[C@@H](CC(C)C)C(=O)N[C@@H](CO)C(=O)N[C@@H](CC(C)C)C(=O)N[C@H](C(=O)N[C@@H](CCC(N)=O)C(=O)N[C@@H](CO)C(=O)N[C@@H](CO)C(=O)N[C@H](C(=O)N[C@@H](CCCNC(=N)N)C(=O)N[C@@H](CCCNC(=N)N)C(=O)N[C@@H](C)C(=O)N[C@@H](Cc1ccc(O)cc1)C(=O)N[C@@H](CCC(N)=O)C(=O)N[C@@H](CCC(N)=O)C(=O)N[C@H](C(=O)N[C@@H](CC(C)C)C(=O)O)[C@@H](C)CC)[C@@H](C)O)[C@@H](C)CC [MFF peptide #8-11] (H-SARGILSLIQSSTRRAYQQIL-OH)
Kd (human recombinant VDAC): ~12 µM

SSQLRYLARSQRITIQLIAGS (MFF Scramble; Peptide 8 #11) [scrambled sequence]
binding to human recombinant VDAC by ITC (human recombinant VDAC): ineffective | mitochondrial membrane potential [2]: not

AEMAEISRIQYEMEYTEGISQRMRVP (MFF-Derived; Peptide #1) [MFF #1]
cytochrome c release from tumor cells (PC3 cells): had no effect

DGANLSSARGILSLIQSSTRRAYQQILDVL (MFF-Derived; Peptide #8) [MFF peptide #8]
depolarization of isolated tumor (PC3) mitochondria [1]: depolarized tumor mitochondria | depolarization of mitochondria of normal BPH-1 cells [3]: did not depolarize | disruption of the interaction between MFF and VDAC or HK-I [4]: disrupting the interaction between MFF and VDAC or HK-I

MFF peptide #8-11 containing the double mutation R225D/R236D (DD): cell-permeable MFF peptide #8-11 mutant containing the double mutation R225D/R236D (DD) (RQIKIWFQNRRMKSADGILSLIQSSTDRAYQQIL)
tumor cell death / viability [5]: did not affect tumor cell viability | tumor cell death / viability ([5]; listed as DD): entirely lost the ability to induce tumor (PC3) cell death | HMGB1 release from tumor cells (DU145 or PC3 cells): had no effect on HMGB1 release | HMGB1 release from tumor cells (DU145 or PC3 cells; listed as MFF-DD mutant peptide #8-11): did not induce HMGB1 release

DGANLSSARGILSLIQSSTRRAYQQIL (MFF Deletion; Peptide 8 #6) [peptide #8 variant #6]
depolarization of isolated tumor (PC3) mitochondria [1]: depolarized isolated tumor mitochondria
